According to ChEMBL document CHEMBL5370592, “Synthesis and Structure-Activity Relationships of a New Class of Oxadiazoles Targeting DprE1 as Antitubercular Agents” (ACS Med Chem Lett, 2023):
≈ marks a conversion by molar mass, not a printed value. Calls of active or inactive are those of the source. The rule behind the calls is not given here.

Key:
[1] = tested on: Mycobacterium tuberculosis; experiment: Antitubercular activity against Mycobacterium tuberculosis H37Rv ATCC 27294 assessed as inhibition of bacterial growth cultured in Middlebrook 7H9/ADC/Tween 80 with cydC::aph medium for 2 weeks; format: functional; conditions: H37Rv ATCC 27294, 336 h
[2] = tested on: Mycobacterium tuberculosis; experiment: Antitubercular activity against Mycobacterium tuberculosis H37RV ATCC 27294 assessed as inhibition of bacterial growth cultured in Middlebrook 7H9/cholesterol/BSA/Tyloxapol medium for 2 weeks; format: functional; conditions: H37Rv ATCC 27294, 336 h
[3] = tested on: Mycobacterium tuberculosis; experiment: Antitubercular activity against Mycobacterium tuberculosis H37Rv ATCC 27294 assessed as inhibition of bacterial growth cultured in Middlebrook 7H9/DPPC/cholesterol/BSA/Tyloxapol medium for 2 weeks; format: functional; conditions: H37Rv ATCC 27294, 336 h
[4] = tested on: Mycobacterium tuberculosis; experiment: Antitubercular activity against Mycobacterium tuberculosis H37Rv ATCC 27294 assessed as inhibition of bacterial growth cultured in Middlebrook 7H9/BSA/Tyloxapol with glucose medium for 2 weeks; format: functional; conditions: H37Rv ATCC 27294, 336 h
[5] = tested on: Mycobacterium tuberculosis; experiment: Antitubercular activity against Mycobacterium tuberculosis H37Rv ATCC 27294 assessed as inhibition of bacterial growth cultured in Middlebrook 7H9/ADC/Tween 80 medium for 2 weeks; format: functional; conditions: H37Rv ATCC 27294, 336 h
[6] = tested on: Mycobacterium tuberculosis; experiment: Induction of DNA damage in Mycobacterium tuberculosis H37Rv transfected with PrecA-LUX reporter assessed as induction of recA reporter gene expression incubated for 12 days by bioluminescence analysis; format: functional, organism-based; conditions: time 12.0 day
[7] = tested on: Mycobacterium tuberculosis; experiment: Induction of DNA damage in Mycobacterium tuberculosis H37Rv transfected with PradA-LUX reporter assessed as induction of radA reporter gene expression incubated for 12 days by bioluminescence analysis; format: functional, organism-based; conditions: time 12.0 day
[8] = tested on: Mycobacterium tuberculosis; experiment: Antitubercular activity against Mycobacterium tuberculosis H37Rv ATCC 27294 assessed as inhibition of bacterial growth cultured in Middlebrook 7H9/glucose/casitone/tyloxapol medium for 2 weeks; format: functional; conditions: H37Rv ATCC 27294, 336 h
[9] = Cytotoxicity against human HepG2 cells assessed as reduction in cell viability incubated for 24 hrs in DMEM/10% FBS supplemented with glucose by CellTiter-Glo luminescent assay; format: toxicity, cell-based
[10] = Cytotoxicity against human HepG2 cells assessed as reduction in cell viability incubated for 24 hrs in DMEM/10% FBS supplemented with galactose by CellTiter-Glo luminescent assay; format: toxicity, cell-based

Structure (SMILES): NNC(=O)c1ccncc1 [ISONIAZID]
- MIC [1]: 0.39 µM (≈ 0.0535 µg/mL)
- MIC [2]: 0.39 µM (≈ 0.0535 µg/mL)
- MIC [3]: 0.2 µM (≈ 0.0274 µg/mL)
- MIC [4]: 0.16 µM (≈ 0.0219 µg/mL)
- MIC [5]: 0.2 µM (≈ 0.0274 µg/mL)
- Activity [6]: inactive
- Activity [7]: inactive
- MIC [8]: 0.1 µM (≈ 0.0137 µg/mL)

Structure (SMILES): O=C(C1CCN(c2nnc(-c3ccccc3)o2)CC1)N1CCC(Cc2ccccc2)C1 (stereo unspecified)
- MIC [4]: 9.4 µM (≈ 3.92 µg/mL)
- MIC [8]: 6.25 µM (≈ 2.6 µg/mL)
- IC50 at 24 h [9]: > 50 µM
- IC50 at 24 h [10]: 37.5 µM

Structure (SMILES): O=C(C1CCN(c2nnc(-c3ccccc3)o2)CC1)N1CCC(CC2CCCCC2)CC1
- MIC [4]: 0.2 µM (≈ 0.0873 µg/mL)
- MIC [8]: 0.05 µM (≈ 0.0218 µg/mL)
- IC50 at 24 h [9]: > 50 µM
- IC50 at 24 h [10]: > 50 µM

Structure (SMILES): CC(C)C1CCN(C(=O)C2CCN(c3nnc(-c4ccccc4)o3)CC2)CC1
- MIC [4]: 4.7 µM (≈ 1.8 µg/mL)
- MIC [8]: 2.3 µM (≈ 0.88 µg/mL)
- IC50 at 24 h [9]: > 50 µM
- IC50 at 24 h [10]: > 50 µM

Structure (SMILES): CC(C)(C)C1CCN(C(=O)C2CCN(c3nnc(-c4ccccc4)o3)CC2)CC1
- MIC [4]: 4.7 µM (≈ 1.86 µg/mL)
- MIC [8]: 1.2 µM (≈ 0.476 µg/mL)
- IC50 at 24 h [9]: > 50 µM
- IC50 at 24 h [10]: > 50 µM

Structure (SMILES): O=C(C1CCN(c2nnc(-c3ccc(C(F)(F)F)cc3)o2)CC1)N1CCC(Cc2ccccc2)CC1
- MIC [4]: > 50 µM
- MIC [8]: > 50 µM
- IC50 at 24 h [9]: > 50 µM
- IC50 at 24 h [10]: > 50 µM

Structure (SMILES): O=C(C1CCN(c2nnc(-c3ccccc3)o2)CC1)N1CCC(C(F)(F)F)CC1
- MIC [4]: 1.56 µM (≈ 0.637 µg/mL)
- MIC [8]: 0.2 µM (≈ 0.0817 µg/mL)
- IC50 at 24 h [9]: > 50 µM
- IC50 at 24 h [10]: > 50 µM

Structure (SMILES): O=C(C1CCN(c2nnc(-c3ccccc3)o2)C1)N1CCC(Cc2ccccc2)CC1 (stereo unspecified)
- MIC [4]: 50 µM (≈ 20.8 µg/mL)
- MIC [8]: 6.3 µM (≈ 2.62 µg/mL)
- IC50 at 24 h [9]: > 50 µM
- IC50 at 24 h [10]: > 50 µM

Structure (SMILES): O=C(C1CCN(c2nnc(-c3ccccc3)o2)CC1)N1CCc2ccccc2C1
- MIC [4]: 50 µM (≈ 19.4 µg/mL)
- MIC [8]: 37 µM (≈ 14.4 µg/mL)
- IC50 at 24 h [9]: > 50 µM
- IC50 at 24 h [10]: > 50 µM

Structure (SMILES): O=C(C1CCN(c2nnc(-c3ccccc3)o2)CC1)N1CCN(Cc2ccccc2)CC1
- MIC [4]: 50 µM (≈ 21.6 µg/mL)
- MIC [8]: 25 µM (≈ 10.8 µg/mL)
- IC50 at 24 h [9]: > 50 µM
- IC50 at 24 h [10]: > 50 µM

Structure (SMILES): O=C(NCc1ccccc1)C1CCN(c2nnc(-c3ccccc3)o2)CC1
- MIC [4]: > 50 µM
- MIC [8]: 25 µM (≈ 9.06 µg/mL)
- IC50 at 24 h [9]: > 50 µM
- IC50 at 24 h [10]: > 50 µM

Structure (SMILES): O=C(C1CCN(c2nnc(-c3ccncc3)o2)CC1)N1CCC(Cc2ccccc2)CC1
- MIC [4]: 1.2 µM (≈ 0.518 µg/mL)
- MIC [8]: 0.39 µM (≈ 0.168 µg/mL)
- IC50 at 24 h [9]: > 50 µM
- IC50 at 24 h [10]: 37.5 µM

Structure (SMILES): O=C(C1CCCN(c2nnc(-c3ccccc3)o2)C1)N1CCC(Cc2ccccc2)CC1 (stereo unspecified)
- MIC [4]: 50 µM (≈ 21.5 µg/mL)
- MIC [8]: 25 µM (≈ 10.8 µg/mL)
- IC50 at 24 h [9]: > 50 µM
- IC50 at 24 h [10]: 37.5 µM

Structure (SMILES): O=C(C1CCN(c2nnc(-c3ccccc3)o2)CC1)N1CCC(=Cc2ccccc2)CC1
- MIC [4]: 2.3 µM (≈ 0.986 µg/mL)
- MIC [8]: 0.3 µM (≈ 0.129 µg/mL)
- IC50 at 24 h [9]: > 50 µM
- IC50 at 24 h [10]: 37.5 µM

Structure (SMILES): O=C(C1CCN(c2noc(-c3ccccc3)n2)CC1)N1CCC(Cc2ccccc2)CC1
- MIC [4]: 1.2 µM (≈ 0.517 µg/mL)
- MIC [8]: 0.3 µM (≈ 0.129 µg/mL)
- IC50 at 24 h [9]: > 50 µM
- IC50 at 24 h [10]: 37.5 µM

Structure (SMILES): CCCCCC[C@H]1C(=O)O[C@H](C)[C@H](NC(=O)c2cccc(NC=O)c2O)C(=O)O[C@@H](C)[C@@H]1OC(=O)CC(C)C [ANTIMYCIN A]
- IC50 at 24 h [9]: > 250 µM
- IC50 at 24 h [10]: 0.12 µM
